Here are results for one compound from publication PMC4579064 (Toxicology and applied pharmacology, 2015).

The subject of one data set is human liver microsomes. As to the kind of experiment: paraoxon formation from parathion. The class given is biochemical.
Another data set has as its target T1, CYP1A2 (Homo sapiens, UniProt P05177).
T1 sequence (P05177 2-516 limits assumed): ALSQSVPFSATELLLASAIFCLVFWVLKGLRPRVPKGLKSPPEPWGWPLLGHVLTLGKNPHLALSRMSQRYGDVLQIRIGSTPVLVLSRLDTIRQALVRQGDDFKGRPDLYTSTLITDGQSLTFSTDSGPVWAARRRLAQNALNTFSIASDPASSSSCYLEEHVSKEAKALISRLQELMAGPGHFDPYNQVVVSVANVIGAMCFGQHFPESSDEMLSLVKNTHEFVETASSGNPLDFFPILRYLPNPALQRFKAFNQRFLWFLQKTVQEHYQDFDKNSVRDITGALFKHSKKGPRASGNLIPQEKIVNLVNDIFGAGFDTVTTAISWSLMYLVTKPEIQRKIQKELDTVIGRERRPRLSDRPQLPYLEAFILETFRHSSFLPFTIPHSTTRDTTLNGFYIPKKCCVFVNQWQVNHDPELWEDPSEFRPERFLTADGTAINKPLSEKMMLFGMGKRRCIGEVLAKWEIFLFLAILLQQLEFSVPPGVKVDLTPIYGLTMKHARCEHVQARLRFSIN
The conditions noted are these: 50 µM menadione; parathion 200 µM.

The target in another data set is CYP2E1 (Homo sapiens, UniProt P05181). As to the kind of experiment: recombinant CYP activity with fluorogenic substrate. Format: biochemical.
The next data set addresses CYP2D6 (Homo sapiens, UniProt P10635). The description is as above.
The target in a further data set is T2, CYP1A1 (Homo sapiens, UniProt P04798).
T2 sequence (P04798 1-512): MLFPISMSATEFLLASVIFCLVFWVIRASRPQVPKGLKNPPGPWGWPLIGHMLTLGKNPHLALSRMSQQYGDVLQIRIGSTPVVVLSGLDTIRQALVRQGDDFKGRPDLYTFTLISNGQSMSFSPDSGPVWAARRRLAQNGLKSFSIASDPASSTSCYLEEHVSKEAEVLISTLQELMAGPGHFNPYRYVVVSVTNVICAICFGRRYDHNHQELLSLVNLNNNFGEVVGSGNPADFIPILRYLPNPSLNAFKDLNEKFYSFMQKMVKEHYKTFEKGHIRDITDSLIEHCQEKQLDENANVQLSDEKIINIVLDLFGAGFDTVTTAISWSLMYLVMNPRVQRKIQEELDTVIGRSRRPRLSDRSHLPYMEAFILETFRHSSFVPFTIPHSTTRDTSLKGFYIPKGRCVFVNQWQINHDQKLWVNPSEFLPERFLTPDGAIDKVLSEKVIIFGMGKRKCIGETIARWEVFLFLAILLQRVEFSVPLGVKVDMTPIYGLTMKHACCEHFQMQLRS
T2 sequence (P16435 2-677 partner): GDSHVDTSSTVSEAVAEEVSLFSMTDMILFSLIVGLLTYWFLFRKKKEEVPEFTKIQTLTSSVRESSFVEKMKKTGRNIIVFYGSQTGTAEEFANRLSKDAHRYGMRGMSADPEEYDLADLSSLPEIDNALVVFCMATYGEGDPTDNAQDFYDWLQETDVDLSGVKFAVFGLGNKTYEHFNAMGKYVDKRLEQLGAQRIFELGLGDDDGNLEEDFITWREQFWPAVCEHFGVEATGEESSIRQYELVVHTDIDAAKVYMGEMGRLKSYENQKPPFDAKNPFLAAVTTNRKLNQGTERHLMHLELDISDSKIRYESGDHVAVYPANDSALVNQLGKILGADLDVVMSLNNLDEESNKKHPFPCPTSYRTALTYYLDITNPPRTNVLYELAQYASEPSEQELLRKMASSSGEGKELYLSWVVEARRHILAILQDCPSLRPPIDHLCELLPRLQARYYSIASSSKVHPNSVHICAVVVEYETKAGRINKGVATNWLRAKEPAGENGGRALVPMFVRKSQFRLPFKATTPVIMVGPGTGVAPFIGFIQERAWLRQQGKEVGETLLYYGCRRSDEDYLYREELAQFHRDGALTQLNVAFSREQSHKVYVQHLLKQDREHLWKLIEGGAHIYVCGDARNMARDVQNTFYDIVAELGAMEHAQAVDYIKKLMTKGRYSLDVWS
The data set is described as above.

A further data set deals with CYP2C19 (Homo sapiens, UniProt P33261). Described as above. Format: biochemical.
Sequence of CYP2C19 (P33261 whole entry, one chain of several): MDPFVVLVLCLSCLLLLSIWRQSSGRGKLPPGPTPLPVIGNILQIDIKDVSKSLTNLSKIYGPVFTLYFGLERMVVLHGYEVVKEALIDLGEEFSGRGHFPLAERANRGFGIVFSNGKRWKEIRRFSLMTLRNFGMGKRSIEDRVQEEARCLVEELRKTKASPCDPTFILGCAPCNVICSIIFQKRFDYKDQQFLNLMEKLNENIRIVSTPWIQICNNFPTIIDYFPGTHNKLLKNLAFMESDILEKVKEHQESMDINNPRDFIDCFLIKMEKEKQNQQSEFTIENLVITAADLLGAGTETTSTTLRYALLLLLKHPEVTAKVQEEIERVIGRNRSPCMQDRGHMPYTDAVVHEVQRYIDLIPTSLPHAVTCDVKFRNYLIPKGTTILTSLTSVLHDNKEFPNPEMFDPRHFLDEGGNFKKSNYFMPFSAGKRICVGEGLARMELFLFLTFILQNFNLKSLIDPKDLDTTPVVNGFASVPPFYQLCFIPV

Sequence of CYP2D6 (P10635 whole entry, one chain of several): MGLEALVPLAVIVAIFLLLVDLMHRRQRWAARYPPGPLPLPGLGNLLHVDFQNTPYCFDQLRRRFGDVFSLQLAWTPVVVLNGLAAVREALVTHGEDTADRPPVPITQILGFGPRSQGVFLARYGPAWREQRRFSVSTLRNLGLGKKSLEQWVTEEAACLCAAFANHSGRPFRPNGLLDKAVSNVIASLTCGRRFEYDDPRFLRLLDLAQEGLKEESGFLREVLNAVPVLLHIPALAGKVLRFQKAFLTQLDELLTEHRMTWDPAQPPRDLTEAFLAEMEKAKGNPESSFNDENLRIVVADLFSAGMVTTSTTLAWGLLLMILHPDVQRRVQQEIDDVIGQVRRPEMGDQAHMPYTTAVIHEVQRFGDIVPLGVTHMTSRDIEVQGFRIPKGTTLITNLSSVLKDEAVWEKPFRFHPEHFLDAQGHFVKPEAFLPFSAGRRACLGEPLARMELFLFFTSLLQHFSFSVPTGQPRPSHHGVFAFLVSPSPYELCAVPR
Sequence of CYP2E1 (P05181 whole entry, one chain of several): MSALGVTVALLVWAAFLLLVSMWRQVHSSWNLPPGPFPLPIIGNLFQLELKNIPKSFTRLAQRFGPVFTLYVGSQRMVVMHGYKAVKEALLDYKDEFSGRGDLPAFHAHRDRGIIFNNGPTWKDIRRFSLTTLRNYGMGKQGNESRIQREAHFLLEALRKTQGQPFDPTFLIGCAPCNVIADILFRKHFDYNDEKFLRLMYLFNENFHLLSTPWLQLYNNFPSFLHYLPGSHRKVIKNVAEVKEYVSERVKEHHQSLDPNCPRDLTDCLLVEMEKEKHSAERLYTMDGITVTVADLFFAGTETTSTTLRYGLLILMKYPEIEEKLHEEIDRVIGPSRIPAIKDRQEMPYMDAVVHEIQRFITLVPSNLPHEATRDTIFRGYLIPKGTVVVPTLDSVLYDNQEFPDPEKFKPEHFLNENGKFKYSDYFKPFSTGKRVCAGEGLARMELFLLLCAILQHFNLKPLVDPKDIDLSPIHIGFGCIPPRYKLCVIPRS

The IC50 is the midpoint of a concentration-inhibition curve. For the compound `CC1=CC(=O)c2ccccc2C1=O` [menadione, 2-methylnaphthalene-1,4-dione], the paraoxon formation entry in the data set with human liver microsomes was “marked decrease”. Besides, the “CYP1A2 mediated activation of parathion and AChE inhibition” value on CYP1A2 is on record as “completely abolished”. For the same compound, the concentration for half-maximal inhibition (IC50) is 5.58 ± 1.22 µM on CYP2E1, 4.6 ± 0.87 µM on CYP2D6, 4.39 ± 0.42 µM at CYP1A1 and 8.51 ± 0.38 µM at CYP2C19.
